Biological target: T1, NfoR (NAD(P)H-flavin oxidoreductase) (Staphylococcus aureus, UniProt Q2FVA4)
T1 construct: gene SAOUHSC_02829; N-terminal 6xHis tag, pET-28a (pEnfoR), E. coli Rosetta (DE3), HisTrap; dimer by homology model only; residues named: His100, His128, Cys163, Met165
T1 sequence (Q2FVA4 1-223): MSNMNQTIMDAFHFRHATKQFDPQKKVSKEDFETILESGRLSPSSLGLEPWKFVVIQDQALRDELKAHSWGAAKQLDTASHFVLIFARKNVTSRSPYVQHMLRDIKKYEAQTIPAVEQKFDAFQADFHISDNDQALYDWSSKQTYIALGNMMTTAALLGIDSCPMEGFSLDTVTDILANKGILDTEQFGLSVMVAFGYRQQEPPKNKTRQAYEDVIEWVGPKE
Assay: HPLC of flavin released by heating the purified protein
Assay type: binding
Details: FMN co-purified with the protein; non-covalent; occupancy, not an affinity

Cc1cc2nc3c(=O)[nH]c(=O)nc-3n(C[C@H](O)[C@H](O)[C@H](O)COP(=O)(O)O)c2cc1C [FMN]
percent of FMN/isolated NfoR: 79.98%
